Laboratory results published in patent publication US10537725B2, “Ultrasound-assisted convection enhanced delivery of compounds in vivo with a transducer cannula assembly” (CORNELL UNIVERSITY, priority 2010, dated 2020).

Test: Evans blue dye volume distribution in rat brain after CED or ultrasound-assisted CED (UCED) infusion into the caudate
Type: in vivo, Sprague-Dawley rats
Conditions: for total distribution volume of EBD: 30 min
Method: A total of 40 Sprague-Dawley rats (350 to 450 g) were divided into two equal groups and further divided into four equal subgroups (n=5 in each). The rats were anesthetized, secured into ear bars on a stereotaxic apparatus, and a craniotomy was performed. The caudate of the rat brain was infused with 0.25 wt % Evans blue dye (EBD) in Phosphate-Buffered Saline (PBS) at two different infusion rates of 0.25 μL/min for group 1, and 0.5 μL/min for group 2. […] Using the TCA without ultrasound, the four control subgroups were infused without and with microbubbles (CED and CED+MB). The four UCED subgroups (UCED and UCED+MB) followed the same protocol with the addition of simultaneous continuous wave 1.34 MHz ultrasound operating at a total acoustic power of 0.11+/−0.005 W and peak spatial intensity at the cannula tip of I=49.7 mW/cm^2. Frozen sectioning and histology were performed on the brains, and infusion distribution was three-dimensionally reconstructed using MatLab® analysis. Hematoxylin and Eosin (H&E) staining was used to assess tissue damage and morphological changes to the brain. The application of UCED and UCED+MB improved EBD total volumetric distribution by 2.24 to 3.25 and 1.16 to 1.70 times, respectively (p<0.001). On gross and histological examination, no ultrasound or microbubble related damage to the brain tissue was found. The TCA and battery-powered ultrasound device show promise to improve the distribution of infusate during CED in clinical practice.
Rats were anesthetized and euthanized by procedures approved by the Institutional Animal Care and Use Committee (IACUC) at Cornell University. A total of 40 Sprague-Dawley rats (350 to 450 g) were divided into two groups (designated Groups 1 and 2) with four subgroups (5 rats in each subgroup). Animals were anesthetized by inhalation of isoflurane gas and secured in a stereotaxic frame. The head was shaved, 0.5 ml of bupivicaine was applied under the skin as a local anesthetic and an incision was made in the skin along the dorsal midline of the skull. A small craniotomy (6-7 mm diameter) was made over the left side of the exposed skull using a dental drill. The TCA was guided using a micromanipulator to +0 mm anterior, +3 mm lateral and −5.5 mm ventral from bregma, lowered at 0.25 mm per second into the caudate of the rat brain and allowed to equilibrate for two minutes. 1-2 ml of artificial cerebral spinal fluid (aCSF) and a gel-foam dam was used to couple acoustic energy from the face of the TCA into the rodent brain. The TCA was powered on with the pocket-sized ultrasound system at the +/−11.1 V setting and infusion began.
For each rat, the entire experiment lasted a total of 30 min. The control subgroups of CED and CED+MB (n=5 in each) were infused using the TCA with no ultrasound therapy for 30 min. For the experimental subgroups of UCED and UCED+MB (n=5 in each), infusion and ultrasound exposure at an acoustic power of 0.11+/−0.005 W, and TCA face intensity of 0.095 W/cm^2 which corresponded to a cannula tip intensity of 0.0497 W/cm^2 for 30 min was applied simultaneously. Filtered Evan's blue dye (EBD) 0.25 wt % in phosphate buffered saline (PBS) without or with 5×10^5 stabilized microbubbles per μL with median diameter of 2.5 μm (Targestar™-P, Targeson Inc.) was infused using a microinfusion pump (Worker Bee™, Bioanalytical Systems, Inc.).
The starting infusion flow rate for the experiments of Group 1 was 0.05 μL/min for 5 min; the infusion flow rate was then increased to 0.1 μL/min for an additional 5 min, to a final flow rate of 0.25 μL/min for 20 min. The starting infusion flow rate of Group 2 was 0.1 μL/min for 5 min; the infusion flow rate was then increased to 0.25 μL/min for an additional 5 min, to a final flow rate of 0.5 μL/min for 20 min.
After 30 min of simultaneous infusion and ultrasound therapy the experiment was stopped. The TCA was left in the tissue for 1-2 min before being removed while euthanasia via cardiac urethane injection was performed. […]

- total distribution volume of EBD (group 1, 0.25 μL/min infusion, left caudate, CED): 13.6 mm^3
- total distribution volume of EBD (group 1, 0.25 μL/min infusion, left caudate, CED+MB): 15.9 mm^3
- total distribution volume of EBD (group 1, 0.25 μL/min infusion, left caudate, UCED): 33.1 mm^3
- total distribution volume of EBD (group 1, 0.25 μL/min infusion, left caudate, UCED+MB): 27.0 mm^3
- total distribution volume of EBD (group 1, 0.25 μL/min infusion, left hemisphere, CED (no ultrasound)): 20.6 mm^3
- total distribution volume of EBD (group 1, 0.25 μL/min infusion, left hemisphere, CED+MB (microbubbles, no ultrasound)): 19.7 mm^3
- total distribution volume of EBD (group 1, 0.25 μL/min infusion, left hemisphere, UCED (1.34 MHz ultrasound)): 46.3 mm^3
- total distribution volume of EBD (group 1, 0.25 μL/min infusion, left hemisphere, UCED+MB): 26.9 mm^3
- increase of EBD distribution volume (group 1, 0.25 μL/min, left caudate, UCED compared to CED): 2.44 ×
- increase of EBD distribution volume (group 1, 0.25 μL/min, left caudate, UCED+MB compared to CED+MB): 1.7 ×
- increase of EBD distribution volume (group 1, 0.25 μL/min, left hemisphere, UCED compared to CED): 2.24 ×
- increase of EBD distribution volume (group 1, 0.25 μL/min, left hemisphere, UCED+MB compared to CED+MB): 1.37 ×
- total distribution volume of EBD (group 2, 0.5 μL/min infusion, left caudate, UCED): 70.2 mm^3
- total distribution volume of EBD (group 2, 0.5 μL/min infusion, left caudate, UCED+MB): 30.2 mm^3
- total distribution volume of EBD (group 2, 0.5 μL/min infusion, left hemisphere, CED): 37.4 mm^3
- total distribution volume of EBD (group 2, 0.5 μL/min infusion, left hemisphere, CED+MB): 31.9 mm^3
- total distribution volume of EBD (group 2, 0.5 μL/min infusion, left hemisphere, UCED): 111 mm^3
- total distribution volume of EBD (group 2, 0.5 μL/min infusion, left hemisphere, UCED+MB): 37.1 mm^3
- increase of EBD distribution volume (group 2, 0.5 μL/min, left caudate, UCED compared to CED): 3.25 ×
- increase of EBD distribution volume (group 2, 0.5 μL/min, left caudate, UCED+MB compared to CED+MB): 1.54 ×
- increase of EBD distribution volume (group 2, 0.5 μL/min, left hemisphere, UCED compared to CED): 2.96 ×
- increase of EBD distribution volume (group 2, 0.5 μL/min, left hemisphere, UCED+MB compared to CED+MB): 1.16 ×
SMILES: Cc1cc(-c2ccc(/N=N/c3ccc4c(S(=O)(=O)O)cc(S(=O)(=O)O)c(N)c4c3O)c(C)c2)ccc1/N=N/c1ccc2c(S(=O)(=O)O)cc(S(=O)(=O)O)c(N)c2c1O [EBD, Evans blue dye]
